This is an account of results in patent US12486278B2, “MASP-2 inhibitors and methods of use” (Omeros Corporation, priority 2019, dated 2025).

The assay addresses T1, MASP-2 (CCP1-CCP2-SP) (Homo sapiens, UniProt O00187).
T1 construct: 15 μL of Enzyme MASP-2 (CCP1-CCP2-SP) in Assay Buffer
The experiment in a line: Enzymatic Assay for MASP-2 (fluorogenic substrate). The settings on record: fluorogenic substrate based on C2 cleavage site; room temperature, 20 min; 20 mM HEPES pH 7.4, 140 mM NaCl, 0.1% Tween 20. In kind it is biochemical. As to the method: The MASP-2 assay utilizes a fluorogenic substrate, based on the cleavage site for its natural substrate C2. The assay is run at room temperature in an assay buffer containing 20 mM HEPES, pH 7.4, 140 mM NaCl and 0.1% Tween 20. Assay parameters are adjusted such that the assay is linear with respect to time, enzyme, and substrate concentrations. Under these optimized assays conditions, IC50 values are equivalent to Ki values, except in a few cases of “tight binding” inhibitors. Cases of “tight binding” or possible “slow binding” inhibitors are handled by the methods described in Copeland R. A. (2013) Evaluation of Enzyme Inhibitors in Drug Discovery. 2nd Ed., John Wiley and Sons, Inc., Chapters 5-7.
The MASP-2 assay protocol is carried out as follows. Test compounds are serially diluted in DMSO and then 100 nL of each dilution is transferred to the assay plate(s). 10 μL of Assay Buffer is added, followed by 15 μL of Enzyme MASP-2 (CCP1-CCP2-SP) in Assay Buffer. 15 μL of Substrate in Assay Buffer is then added and mixed to start the reactions. After 20 min at room temperature, 15 μL of a stop solution (0.1 M acetic acid) is added, mixed and the plates are read on a SpectraMax i3x Microplate Reader and exported as Excel files. Each assay plate included a “no inhibitor” (DMSO Only) control, a “no enzyme” control and a reference inhibitor control. % Activity values=100*(average test comp. fluorescence−average “no enzyme” fluorescence)/(average “DMSO only” fluorescence−average “no enzyme” fluorescence). IC50 and Ki values are very reproducible, falling well within ±2-fold.

Molecules are shown by their SMILES. Where a name gives a salt, the structure may show the parent alone.

T1 sequence (O00187 445-686 limits assumed): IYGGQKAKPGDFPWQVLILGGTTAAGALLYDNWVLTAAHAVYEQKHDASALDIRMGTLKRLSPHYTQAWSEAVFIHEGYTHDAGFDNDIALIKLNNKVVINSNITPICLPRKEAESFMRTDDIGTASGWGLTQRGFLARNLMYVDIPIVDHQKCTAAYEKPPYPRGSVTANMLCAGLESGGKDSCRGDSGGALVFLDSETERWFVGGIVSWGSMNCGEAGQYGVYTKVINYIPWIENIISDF
T1 sequence (O00187 298-444 partner limits assumed): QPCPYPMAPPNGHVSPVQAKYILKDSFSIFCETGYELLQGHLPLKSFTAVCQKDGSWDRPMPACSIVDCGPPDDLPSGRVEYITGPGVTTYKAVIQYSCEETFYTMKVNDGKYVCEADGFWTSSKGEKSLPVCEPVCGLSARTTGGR

By Ki is commonly meant a measure of affinity in units of concentration, obtained from inhibition or displacement. A low value points to a stronger hold on the target. Take `Cc1cccc(C2CN[C@@H](C(=O)N[C@@H](C)C(=O)NCc3ccc(C(=N)N)cc3)C2)c1` (single isomer, unassigned) [Compound I-14, N-(1-((4-Carbamimidoylbenzyl)amino)-1-oxopropan-2-yl)-4-(m-tolyl)pyrrolidine-2-carboxamide]: the Ki is less than 500 nM. The value for `CC(NC(=O)[C@H]1C[C@@H](c2ccccc2)CCN1CC(=O)O)C(=O)NCc1cc2cnccc2[nH]1` (stereo in doubt) [Compound I-104, 2-((2R,4S)-2-(((R)-1-(((1H-pyrrolo[3,2-c]pyridin-2-yl)methyl)amino)-1-oxopropan-2-yl)carbamoyl)-4-phenylpiperidin-1-yl)acetic acid di-trifluoroacetate] was less than 500 nM; that for `CC(NC(=O)[C@H]1C[C@@H](c2ccccc2)CCN1CC(=O)O)C(=O)NCc1cc2cnccc2[nH]1` (stereo in doubt) [Compound I-105, 2-((2R,4S)-2-(((S)-1-(((1H-pyrrolo[3,2-c]pyridin-2-yl)methyl)amino)-1-oxopropan-2-yl)carbamoyl)-4-phenylpiperidin-1-yl)acetic acid di-trifluoroacetate] was less than 500 nM. `C[C@H](NC(=O)[C@H]1C[C@H](c2ccccc2)CN1)C(=O)NCc1cc2c(Br)cncc2[nH]1` [Compound I-1, (2R,4R)—N—((S)-1-(((4-bromo-1H-pyrrolo[2,3-c]pyridin-2-yl)methyl)amino)-1-oxopropan-2-yl)-4-phenylpyrrolidine-2-carboxamide di-trifluoroacetate] came in with a Ki of more than 10000 nM. With `C[C@H](NC(=O)[C@H]1C[C@H](Cc2ccc(F)c(Cl)c2)CN1)C(=O)NCc1cc2cnccc2[nH]1` [Compound I-2, (2R,4S)—N—((S)-1-(((1H-Pyrrolo[3,2-C]Pyridin-2-Yl)Methyl)Amino)-1-Oxopropan-2-Yl)-4-(3-Chloro-4-Fluorobenzyl)Pyrrolidine-2-Carboxamide Di-Trifluoroacetate], the inhibition constant (Ki) was less than 500 nM. `C[C@H](NC(=O)[C@H]1C[C@H](c2ccccc2)CN1)C(=O)NCc1cc2ccncc2[nH]1` [Compound I-3, (2R,4R)—N—((S)-1-(((1H-pyrrolo[2,3-c]pyridin-2-yl)methyl)amino)-1-oxopropan-2-yl)-4-phenylpyrrolidine-2-carboxamide di-trifluoroacetate] returned a Ki of 2500 to 10000 nM. Compound `C[C@H](NC(=O)[C@H]1C[C@H](c2ccccc2)CN1)C(=O)NCc1nc2c(Cl)cccc2s1` [Compound I-4, (2R,4R)—N—((S)-1-(((4-Chlorobenzo[D]Thiazol-2-Yl)Methyl)Amino)-1-Oxopropan-2-Yl)-4-Phenylpyrrolidine-2-Carboxamide Trifluoroacetate] displayed a Ki of 500 to 2500 nM. `C[C@H](NC(=O)[C@H]1C[C@H](Cc2cccc(Cl)c2)CN1)C(=O)NCc1cc2cnccc2[nH]1` [Compound I-5, (2R,4S)—N—((S)-1-(((1H-Pyrrolo[3,2-c]pyridin-2-yl)methyl)amino)-1-oxopropan-2-yl)-4-(3-chlorobenzyl)pyrrolidine-2-carboxamide di-trifluoroacetate] showed a Ki of less than 500 nM. In turn, `C[C@H](NC(=O)[C@H]1C[C@H](c2ccccc2)CN1)C(=O)NCc1cc2ncccc2[nH]1` [Compound I-6, (2R,4R)—N—((S)-1-(((1H-Pyrrolo[3,2-b]pyridin-2-yl)methyl)amino)-1-oxopropan-2-yl)-4-phenylpyrrolidine-2-carboxamide di-trifluoroacetate] displayed a Ki of 500 to 2500 nM.

`C[C@H](NC(=O)[C@H]1C[C@H](c2ccccc2)CN1)C(=O)NCc1[nH]c2ccncc2c1F` [Compound I-7, (2R,4R)—N—((S)-1-(((3-Fluoro-1H-Pyrrolo[3,2-C]Pyridin-2-Yl)Methyl)Amino)-1-Oxopropan-2-Yl)-4-Phenylpyrrolidine-2-Carboxamide Di-Trifluoroacetate] came in with a Ki of less than 500 nM. As to `C[C@H](NC(=O)[C@H]1C[C@H](C2(c3ccccc3)CC2)CN1)C(=O)NCc1cc2cnccc2[nH]1` [Compound I-8, (2R,4R)—N—((S)-1-(((1H-Pyrrolo[3,2-C]Pyridin-2-Yl)Methyl)Amino)-1-Oxopropan-2-Yl)-4-(1-Phenylcyclopropyl)Pyrrolidine-2-Carboxamide Di-Trifluoroacetate], the Ki was less than 500 nM. As for `C[C@H](NC(=O)[C@H]1C[C@H](Cc2ccccc2)CN1)C(=O)NCc1ccc2c(c1)CNC2` [Compound I-9, (2R,4S)-4-Benzyl-N—((S)-1-((Isoindolin-5-Ylmethyl)Amino)-1-Oxopropan-2-Yl)Pyrrolidine-2-Carboxamide Di-Trifluoroacetate], the figure is less than 500 nM; as for `C[C@H](NC(=O)[C@H]1C[C@H](Cc2ccccc2)CN1)C(=O)NCc1cnc2scc(Cl)c2c1` [Compound I-11, (2R,4S)-4-Benzyl-N—((S)-1-(((3-Chlorothieno[2,3-B]Pyridin-5-Yl)Methyl)Amino)-1-Oxopropan-2-Yl)Pyrrolidine-2-Carboxamide Trifluoroacetate], less than 500 nM.

On to `Cc1nc(N)ccc1CNC(=O)[C@@H]1COCCN1C(=O)[C@H]1C[C@H](Cc2ccccc2)CN1` [Compound I-12, (S)—N-((6-Amino-2-Methylpyridin-3-Yl)Methyl)-4-((2R,4S)-4-Benzylpyrrolidine-2-Carbonyl)Morpholine-3-Carboxamide Di-Trifluoroacetate], for which the Ki fell in the range of 500 to 2500 nM. `Cc1cccc([C@@H]2CN[C@@H](C(=O)N[C@@H](C)C(=O)NCc3ccc(C(=N)N)cc3)C2)c1` [Compound I-13, (2R,4R)—N—((S)-1-((4-Carbamimidoylbenzyl)Amino)-1-Oxopropan-2-Yl)-4-(M-Tolyl)Pyrrolidine-2-Carboxamide] came in with a Ki of less than 500 nM. On to `C[C@H](NC(=O)[C@H]1C[C@@H](c2cccc(C(N)=O)c2)CN1)C(=O)NCc1ccc(C(=N)N)cc1` [Compound I-15], for which the Ki was less than 500 nM. In turn, `COc1cccc([C@@H]2CN[C@@H](C(=O)N[C@@H](C)C(=O)NCc3ccc(C(=N)N)cc3)C2)c1` [Compound I-16, (2R,4R)—N—((S)-1-((4-Carbamimidoylbenzyl)Amino)-1-Oxopropan-2-Yl)-4-(3-Methoxyphenyl)Pyrrolidine-2-Carboxamide Dihydrochloride] displayed a Ki of less than 500 nM. For the compound `Cc1nc(N)ccc1CNC(=O)[C@H](C)NC(=O)[C@H]1C[C@H](Cc2cc(Br)c(Br)s2)CN1` [Compound I-17, (2R,4R)—N—((S)-1-(((6-Amino-2-Methylpyridin-3-Yl)Methyl)Amino)-1-Oxopropan-2-Yl)-4-((4,5-Dibromothiophen-2-Yl)Methyl)Pyrrolidine-2-Carboxamide Di-Trifluoroacetate], the Ki was less than 500 nM. As for `Cc1nc(N)ccc1CNC(=O)[C@H](C)NC(=O)[C@H]1C[C@H](Cc2cc(Cl)c(Cl)s2)CN1` [Compound I-18, (2R,4R)—N—((S)-1-(((6-Amino-2-Methylpyridin-3-Yl)Methyl)Amino)-1-Oxopropan-2-Yl)-4-((4,5-Dichlorothiophen-2-Yl)Methyl)Pyrrolidine-2-Carboxamide Di-Trifluoroacetate], the figure is less than 500 nM; as for `C[C@H](NC(=O)[C@H]1C[C@H](Cc2cc(Br)c(Cl)s2)CN1)C(=O)NCc1cnc2c(c1)c(Cl)cn2C` [Compound I-19, (2R,4R)-4-((4-Bromo-5-Chlorothiophen-2-Yl)Methyl)-N—((S)-1-(((3-Chloro-1-Methyl-1H-Pyrrolo[2,3-B]Pyridin-5-Yl)Methyl)Amino)-1-Oxopropan-2-Yl)Pyrrolidine-2-Carboxamide Trifluoroacetate], less than 500 nM; as for `C[C@H](NC(=O)[C@H]1C[C@H](Cc2cc(Cl)c(Cl)s2)CN1)C(=O)NCc1cnc2c(c1)c(Cl)cn2C` [Compound I-20, Trifluoroacetate], less than 500 nM.

Consider `C[C@H](NC(=O)[C@H]1C[C@H](Cc2cc(Br)c(Cl)s2)CN1)C(=O)NCc1cc2cnccc2[nH]1` [Compound I-21, (2R,4R)—N—((S)-1-(((1H-Pyrrolo[3,2-C]Pyridin-2-Yl)Methyl)Amino)-1-Oxopropan-2-Yl)-4-((4-Bromo-5-Chlorothiophen-2-Yl)Methyl)Pyrrolidine-2-Carboxamide Di-Trifluoroacetate], for which the Ki was less than 500 nM. The value for `C[C@H](NC(=O)[C@H]1C[C@H](Cc2cc(Cl)c(Cl)s2)CN1)C(=O)NCc1cc2cnccc2[nH]1` [Compound I-22, (2R,4R)—N—((S)-1-(((1H-Pyrrolo[3,2-C]Pyridin-2-Yl)Methyl)Amino)-1-Oxopropan-2-Yl)-4-((4,5-Dichlorothiophen-2-Yl)Methyl)Pyrrolidine-2-Carboxamide Di-Trifluoroacetate] was less than 500 nM; that for `C[C@H](NC(=O)[C@H]1C[C@H](Cc2ccc(F)c(Cl)c2)CN1)C(=O)NCc1ccc(C(=N)N)cc1` [Compound I-23, (2R,4S)—N—((S)-1-((4-Carbamimidoylbenzyl)Amino)-1-Oxopropan-2-Yl)-4-(3-Chloro-4-Fluorobenzyl)Pyrrolidine-2-Carboxamide Di-Trifluoroacetate] was less than 500 nM.
